Reference: US9649319B2, “Process for manufacturing sterile brinzolamide ophthalmic suspension” (INDOCO REMEDIES LIMITED, priority 2012, dated 2017)

Assay: Related Substance data of Brinzolamide after sterilization (Gamma irradiation vs Dry heat sterilization)
Assay type: physicochemical
Details: for Impurities: Any individual impurity / Impurities: Related Compound B / Impurities: Related Compound C / Impurities: Related Compound D: Limit NMT 0.3%; for Impurities: Total: Limit NMT 1.0%
Procedure: The active pharmaceutical ingredient according to the present invention after Dry Heat Sterilization will essentially contain the same physico-chemical properties, its chemical purity and physical form as the starting material from which it is prepared. The degradation, especially chemical degradation caused by the present sterilization process is negligible. A table of comparison for Related Substance data of Brinzolamide after sterilization by Gamma irradiation and Dry heat sterilization is presented below.

[1] = after Gamma irradiation sterilization

## CCN[C@H]1CN(CCCOC)S(=O)(=O)c2sc(S(N)(=O)=O)cc21 [Brinzolamide, R 4-ethylamino-3,4-dihydro-2-(3-methoxy)propyl-2H-thieno[3,2-e]-1,2-thiazin-6-sulfonamide 1,1 dioxide]
After Dry Heat Sterilization
  Impurities: Any individual impurity: 0.09%
  Impurities: Related Compound B: 0.01%
  Impurities: Related Compound C: 0.06%
  Impurities: Related Compound D: 0.01%
  Impurities: Total: 0.43%
[1]
  Impurities: Any individual impurity: 0.73%
  Impurities: Related Compound B: 0.4%
  Impurities: Related Compound C: 0.06%
  Impurities: Related Compound D: 0.01%
  Impurities: Total: 1.98%
